Results from patent publication US10258603B2 (priority 2014, dated 2019).

These molecules were tested against T1, BRD9 (Homo sapiens, UniProt Q9H8M2) (assay: BRD9 AlphaLisa Binding Assay).
T1 construct: 134-239 was cloned, expressed, and purified to homogeneity; Flag; made in house
T1 sequence (Q9H8M2 134-239 limits assumed): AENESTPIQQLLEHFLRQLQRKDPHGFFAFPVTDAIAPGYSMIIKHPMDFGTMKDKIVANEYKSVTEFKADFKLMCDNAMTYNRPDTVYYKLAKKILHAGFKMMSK
Protocol: IC50 Measurements for Inhibitors Using BRD9 AlphaLisa Binding Assay His/Flag epitope tagged BRD9134-239 was cloned, expressed, and purified to homogeneity. […] After 20 minutes incubation at room temperature AlphaLisa Streptavidin Acceptor Beads (Perkin-A[…]) and AlphaLisa Nickel donor beads (Perkin AS 10 ID) were added to a final concentration of 15 ug/mL each.

Question: Which IC50 does the source give for `CN(C(=O)c1cn(C)c(=O)c2[nH]ccc12)C1CCN(c2nccc(C#N)n2)CC1` [Example 146, N-[1-(4-cyanopyrimidin-2-yl)-4-piperidyl]-N,6-dimethyl-7-oxo-1H-pyrrolo[2,3-c]pyridine-4-carboxamide] here?
Answer: The IC50 was 1600 nM.

Question: For `Cn1cc(C(=O)NC(c2ccccc2)c2ccccc2)c2cc[nH]c2c1=O` [Example 91], which IC50 is on record?
Answer: Its IC50 is 200 nM.

Question: How did the IC50 turn out when `CN1CCCC1CCNC(=O)c1cn(C)c(=O)c2[nH]ccc12` (stereo not shown) [Example 7, 6-methyl-N-[2-(1-methylpyrrolidin-2-yl)ethyl]-7-oxo-1H-pyrrolo[2,3-c]pyridine-4-carboxamide] was run?
Answer: The IC50 was 990 nM.

Question: Which IC50 does the source give for `Cn1cc(C(=O)NCC2COc3ccccc3C2)c2cc[nH]c2c1=O` (stereo not shown) [Example 108] here?
Answer: Its IC50 is 200 nM.

Question: With `Cn1cc(C(=O)NC2CCCN(C(=O)OC(C)(C)C)C2)c2cc[nH]c2c1=O` (stereo not shown) [Example 138] as the molecule, how does the IC50 read?
Answer: Its IC50 is 310 nM.

Question: With `CN1CCC(CNC(=O)c2cn(C)c(=O)c3[nH]ccc23)CC1` [Example 3, 6-methyl-N-[(1-methyl-4-piperidyl)methyl]-7-oxo-1H-pyrrolo[2,3-c]pyridine-4-carboxamide] as the molecule, how does the IC50 read?
Answer: Its IC50 is 3500 nM.

Question: With `Cn1cc(C(=O)N2CCCC2c2ccccc2)c2cc[nH]c2c1=O` (stereo not shown) [Example 85] as the molecule, how does the IC50 read?
Answer: Its IC50 is 570 nM.

Question: For `CN(Cc1ccccc1)C(=O)c1cn(C)c(=O)c2[nH]ccc12` [Example 87], which IC50 is on record?
Answer: Its IC50 is 1000 nM.

Question: `Cn1cc(C(=O)NC(C)(C)CN2CCOCC2)c2cc[nH]c2c1=O` [Example 35, N-(1,1-dimethyl-2-morpholino-ethyl)-6-methyl-7-oxo-1H-pyrrolo[2,3-c]pyridine-4-carboxamide] was tested. Which IC50 did it give?
Answer: Its IC50 is 11000 nM.

Question: For `Cn1cc(C(=O)NCC2COc3ccccc3O2)c2cc[nH]c2c1=O` (stereo not shown) [Example 111], which IC50 is on record?
Answer: Its IC50 is 240 nM.

Question: For `Cn1cc(C(=O)NCCN2CCCCC2)c2cc[nH]c2c1=O` [Example 5, 6-methyl-7-oxo-N-[2-(1-piperidyl)ethyl]-1H-pyrrolo[2,3-c]pyridine-4-carboxamide], which IC50 is on record?
Answer: The IC50 was 790 nM.

Question: With `CC(NC(=O)c1cn(C)c(=O)c2[nH]ccc12)C1CC1` (stereo not shown) [Example 112] as the molecule, how does the IC50 read?
Answer: Its IC50 is 460 nM.

Question: How did the IC50 turn out when `Cn1cc(C(=O)NC2CCOC2)c2cc[nH]c2c1=O` (stereo not shown) [Example 104] was run?
Answer: Its IC50 is 980 nM.

Question: For `Cn1cc(C(=O)NC2CCN(C(=O)OC(C)(C)C)C2)c2cc[nH]c2c1=O` (stereo not shown) [Example 109], which IC50 is on record?
Answer: The IC50 was 270 nM.

Question: With `CC1CC(C)CN(CCNC(=O)c2cn(C)c(=O)c3[nH]ccc23)C1` (stereo not shown) [Example 33, N-[2-(3.5-dimethyl-1-piperidyl)ethyl]-6-methyl-7-oxo-1H-pyrrolo[2,3-c]pyridine-4-carboxamide] as the molecule, how does the IC50 read?
Answer: Its IC50 is 5400 nM.

Question: `Cn1cc(C(=O)N[C@H](c2ccccc2)[C@@H](O)c2ccccc2)c2cc[nH]c2c1=O` [Example 107] was tested. Which IC50 did it give?
Answer: The IC50 was 3400 nM.

Question: For `CC(NC(=O)c1cn(C)c(=O)c2[nH]ccc12)c1ccc2c(c1)OCCO2` (stereo not shown) [Example 120], which IC50 is on record?
Answer: Its IC50 is 440 nM.

Question: Which IC50 does the source give for `Cn1cc(C(=O)NC2COCc3ccccc32)c2cc[nH]c2c1=O` (stereo not shown) [Example 121] here?
Answer: Its IC50 is 100 nM.

Question: `Cn1cc(C(=O)NCc2ccc(F)cc2)c2cc[nH]c2c1=O` [Example 263] was tested. Which IC50 did it give?
Answer: Its IC50 is 480 nM.

Question: How did the IC50 turn out when `CC(C)CCN1CCC(N(C)C(=O)c2cn(C)c(=O)c3[nH]ccc23)CC1` [Example 217] was run?
Answer: Its IC50 is 4700 nM.

Question: Which IC50 does the source give for `Cn1cc(C(=O)NCC2CCCCCC2)c2cc[nH]c2c1=O` [Example 103] here?
Answer: Its IC50 is 490 nM.

Question: With `C=CCn1cc(C(=O)N(C)C2CCN(c3nccc(C(F)(F)F)n3)CC2)c2cc[nH]c2c1=O` [Example 159, 6-allyl-N-methyl-7-oxo-N-[1-[4-(trioromethyl)pyrimidin-2-yl]-4-piperidyl]-1H-pyrrolo[2,3-c]pyridine-4-carboxamide] as the molecule, how does the IC50 read?
Answer: Its IC50 is 4300 nM.

Question: How did the IC50 turn out when `C/C=C/Cn1cc(C(=O)NCc2ccccc2)c2cc[nH]c2c1=O` [Example 260] was run?
Answer: Its IC50 is 180 nM.

Question: For `CC=CCn1cc(C(=O)NCCC2CCN(C(=O)OCc3ccccc3)C2)c2cc[nH]c2c1=O` (stereo not shown) [Example 19, benzyl 3-[2-[(6-but-2-enyl-7-oxo-1H-pyrrolo[2,3-c]pyridine-4-carbonyl)amino]ethyl]pyrrolidine-1-carboxylate], which IC50 is on record?
Answer: The IC50 was 75 nM.

Question: For `CN(C)CCNC(=O)c1cn(C)c(=O)c2[nH]ccc12` [Example 1, N-(2-dimethylaminoethyl)-6-methyl-7-oxo-1H-pyrrolo[2,3-c]pyridine-4-carboxamide], which IC50 is on record?
Answer: Its IC50 is 3000 nM.
